For the assay, the system named is spontan hypertensiven Ratte. As to the kind of experiment: Blood pressure lowering in the spontaneously hypertensive rat after oral dosing. Type of assay: in vivo. The conditions noted are these: lowest dose that still lowers blood pressure by at least 15 mm Hg, read-out: niederste noch wirksame, orale Dosis. An excerpt: Die in der folgenden Tabelle angeführten Verbindungen senken an der spontan hypertensiven Ratte den Blutdruck um mindestens 15 mm Hg. Angegeben ist die niederste noch wirksame, orale Dosis.

Consider `CCOc1ccccc1NC(=O)c1ccccc1C(=O)NC(C)C(C)(C)C` (stereo not drawn) [Beispiel 13, N-(2-Ethoxyphenyl)-N'-(1,2,2-trimethylpropyl)-phtalamid], for which the minimal effective dose was 10 mg/kg. For `CC(NC(=O)c1ccccc1C(=O)Nc1ccccc1)C(C)(C)C` (stereo not drawn) [Beispiel 12, N-Phenyl-N'-(1,2,2-trimethylpropyl)-phtalamid], the minimal effective dose came to 10 mg/kg. The same measure for `CC(NC(=O)c1ccccc1C(=O)Nc1cccnc1)C(C)(C)C` (stereo not drawn) [Beispiel 26, N-(3-Pyridyl)-N'-(1,2,2-trimethylpropyl)-phtalamid]: 3 mg/kg.

(Values after patent EP0119428A2, “Biscarboxamides for treating diseases, and process for their preparation” (BAYER AG, priority 1983, dated 1984).)
